Assays:
Format in all cases: biochemical
TYK2 = molecular target: T1, TYK2 (Homo sapiens, UniProt P29597); test: TYK2 enzyme inhibition test (LANCE method); settings: 1 μM test compound; for inhibition at 1 µM: read-out: TYK2 enzyme inhibitory activity (%, 1 μM)
T1 construct: purchased Invitrogen
Procedure, shortened: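 TR-FRET (LANCE) readout: after 1 h room-temperature kinase reaction, EDTA plus 4 nM Eu-labelled anti-phosphotyrosine antibody added, signal at 665 nm (340 nm excitation). Reaction combined TYK2, ULight-JAK1 substrate and ATP, prepared at 375 ng/mL, 300 nM and 30 μM before addition, in pH 7.5 HEPES/MgCl2 buffer; enzyme-free wells define full inhibition.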

JAK3 = molecular target: T2, JAK3 (Homo sapiens, UniProt P52333); test: JAK3 enzyme inhibition test (LANCE method); settings: 1 μM test compound; for inhibition at 1 µM: read-out: JAK3 enzyme inhibitory activity (%, 1 μM)
T2 construct: purchased Invitrogen
T2 sequence (P52333 1-1124): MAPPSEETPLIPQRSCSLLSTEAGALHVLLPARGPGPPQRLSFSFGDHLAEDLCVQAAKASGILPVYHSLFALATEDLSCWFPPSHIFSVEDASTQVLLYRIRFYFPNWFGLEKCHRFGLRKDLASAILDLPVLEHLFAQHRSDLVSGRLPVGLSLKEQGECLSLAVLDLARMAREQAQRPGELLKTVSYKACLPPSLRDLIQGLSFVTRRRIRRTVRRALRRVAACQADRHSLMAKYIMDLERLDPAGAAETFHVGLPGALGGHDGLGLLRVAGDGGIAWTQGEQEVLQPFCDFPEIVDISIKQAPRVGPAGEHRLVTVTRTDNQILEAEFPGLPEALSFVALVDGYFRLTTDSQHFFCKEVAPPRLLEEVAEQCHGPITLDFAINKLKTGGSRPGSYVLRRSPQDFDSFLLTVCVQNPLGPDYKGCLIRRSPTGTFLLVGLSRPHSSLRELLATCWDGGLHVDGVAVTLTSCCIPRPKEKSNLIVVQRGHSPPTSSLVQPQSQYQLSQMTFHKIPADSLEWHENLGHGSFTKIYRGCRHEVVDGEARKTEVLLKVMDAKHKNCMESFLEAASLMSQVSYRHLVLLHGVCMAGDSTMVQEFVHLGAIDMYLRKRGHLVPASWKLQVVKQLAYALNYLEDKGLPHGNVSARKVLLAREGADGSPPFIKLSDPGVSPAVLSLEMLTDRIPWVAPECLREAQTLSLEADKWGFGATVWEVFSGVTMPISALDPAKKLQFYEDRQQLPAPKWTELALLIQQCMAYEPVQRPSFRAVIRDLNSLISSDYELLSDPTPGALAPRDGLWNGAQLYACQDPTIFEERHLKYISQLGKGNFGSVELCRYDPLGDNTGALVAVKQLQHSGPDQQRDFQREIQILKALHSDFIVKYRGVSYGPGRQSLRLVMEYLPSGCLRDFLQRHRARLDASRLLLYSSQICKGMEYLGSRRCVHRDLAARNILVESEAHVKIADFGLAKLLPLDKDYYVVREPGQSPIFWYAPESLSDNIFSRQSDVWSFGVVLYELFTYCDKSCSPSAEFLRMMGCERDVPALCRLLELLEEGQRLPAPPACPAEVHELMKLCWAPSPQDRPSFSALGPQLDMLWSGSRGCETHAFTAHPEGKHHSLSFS
Procedure, shortened: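 TR-FRET (LANCE) read: 1 h room-temperature reaction, EDTA quench, Eu-anti-phosphotyrosine antibody, emission 665 nm after 340 nm excitation. Added solutions held 12 ng/mL JAK3, 300 nM ULight-JAK1 substrate and 15 μM ATP (pH 7.5 HEPES). Activity expressed against no-enzyme wells defined as full inhibition.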

JAK2 = molecular target: T3, JAK2 (Homo sapiens, UniProt O60674); test: JAK2 enzyme inhibition test (LANCE method); settings: 1 μM test compound; for inhibition at 1 µM: read-out: JAK2 enzyme inhibitory activity (%, 1 μM)
T3 construct: purchased Invitrogen
Procedure, shortened: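 TR-FRET (LANCE) read-out, ex 340/em 665 nm with 100 μs delay, after 1 hr room-temperature detection with europium anti-phosphotyrosine antibody and 20 mM EDTA. The preceding 1 hr kinase reaction combined JAK2, ULight-JAK1 substrate and ATP, added as 6 ng/mL, 300 nM and 45 μM solutions; enzyme-free wells defined 100% inhibition.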

JAK1 = molecular target: T4, JAK1 (Homo sapiens, UniProt P23458); test: JAK1 enzyme inhibition test (LANCE method); settings: 1 μM test compound; for inhibition at 1 µM: read-out: JAK1 enzyme inhibitory activity (%, 1 μM)
T4 construct: purchased Invitrogen
Procedure, shortened: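 Inhibition expressed against no-enzyme wells (100% inhibition), from time-resolved fluorescence at 665 nm after Eu-anti-phosphotyrosine antibody/EDTA detection. Kinase reaction ran 1 h at room temperature, pH 7.5 HEPES buffer, ULight-JAK1 substrate and ATP diluted to 300 nM and 150 μM before addition.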

T3 sequence (O60674 whole entry): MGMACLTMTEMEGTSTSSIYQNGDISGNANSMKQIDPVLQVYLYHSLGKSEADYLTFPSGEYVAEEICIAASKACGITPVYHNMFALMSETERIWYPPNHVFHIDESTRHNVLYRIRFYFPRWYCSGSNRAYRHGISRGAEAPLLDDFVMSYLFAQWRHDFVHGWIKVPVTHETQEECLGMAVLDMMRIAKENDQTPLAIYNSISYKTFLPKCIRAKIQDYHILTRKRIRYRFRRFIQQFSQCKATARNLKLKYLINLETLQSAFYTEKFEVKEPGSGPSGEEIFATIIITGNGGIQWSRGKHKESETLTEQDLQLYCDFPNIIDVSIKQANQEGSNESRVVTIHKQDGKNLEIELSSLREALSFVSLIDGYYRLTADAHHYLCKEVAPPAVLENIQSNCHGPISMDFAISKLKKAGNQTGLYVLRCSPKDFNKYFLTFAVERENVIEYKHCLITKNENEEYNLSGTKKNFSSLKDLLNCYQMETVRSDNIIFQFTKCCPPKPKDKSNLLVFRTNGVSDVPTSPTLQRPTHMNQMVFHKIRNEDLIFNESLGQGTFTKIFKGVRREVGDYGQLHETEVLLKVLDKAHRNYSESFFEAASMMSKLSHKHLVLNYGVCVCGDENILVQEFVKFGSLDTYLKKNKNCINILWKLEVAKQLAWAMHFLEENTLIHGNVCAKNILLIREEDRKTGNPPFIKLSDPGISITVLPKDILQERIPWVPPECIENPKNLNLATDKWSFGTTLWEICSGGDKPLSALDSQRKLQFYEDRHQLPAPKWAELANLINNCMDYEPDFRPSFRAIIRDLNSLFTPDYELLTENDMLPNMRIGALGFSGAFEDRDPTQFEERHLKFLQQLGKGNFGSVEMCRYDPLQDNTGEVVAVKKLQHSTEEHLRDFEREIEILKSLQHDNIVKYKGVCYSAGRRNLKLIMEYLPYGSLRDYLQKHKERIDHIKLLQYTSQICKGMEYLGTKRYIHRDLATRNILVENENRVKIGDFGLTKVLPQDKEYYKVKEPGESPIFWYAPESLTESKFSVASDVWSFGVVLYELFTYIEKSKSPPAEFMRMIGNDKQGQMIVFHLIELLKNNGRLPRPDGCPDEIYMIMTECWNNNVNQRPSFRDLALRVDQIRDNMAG
T4 sequence (P23458 whole entry): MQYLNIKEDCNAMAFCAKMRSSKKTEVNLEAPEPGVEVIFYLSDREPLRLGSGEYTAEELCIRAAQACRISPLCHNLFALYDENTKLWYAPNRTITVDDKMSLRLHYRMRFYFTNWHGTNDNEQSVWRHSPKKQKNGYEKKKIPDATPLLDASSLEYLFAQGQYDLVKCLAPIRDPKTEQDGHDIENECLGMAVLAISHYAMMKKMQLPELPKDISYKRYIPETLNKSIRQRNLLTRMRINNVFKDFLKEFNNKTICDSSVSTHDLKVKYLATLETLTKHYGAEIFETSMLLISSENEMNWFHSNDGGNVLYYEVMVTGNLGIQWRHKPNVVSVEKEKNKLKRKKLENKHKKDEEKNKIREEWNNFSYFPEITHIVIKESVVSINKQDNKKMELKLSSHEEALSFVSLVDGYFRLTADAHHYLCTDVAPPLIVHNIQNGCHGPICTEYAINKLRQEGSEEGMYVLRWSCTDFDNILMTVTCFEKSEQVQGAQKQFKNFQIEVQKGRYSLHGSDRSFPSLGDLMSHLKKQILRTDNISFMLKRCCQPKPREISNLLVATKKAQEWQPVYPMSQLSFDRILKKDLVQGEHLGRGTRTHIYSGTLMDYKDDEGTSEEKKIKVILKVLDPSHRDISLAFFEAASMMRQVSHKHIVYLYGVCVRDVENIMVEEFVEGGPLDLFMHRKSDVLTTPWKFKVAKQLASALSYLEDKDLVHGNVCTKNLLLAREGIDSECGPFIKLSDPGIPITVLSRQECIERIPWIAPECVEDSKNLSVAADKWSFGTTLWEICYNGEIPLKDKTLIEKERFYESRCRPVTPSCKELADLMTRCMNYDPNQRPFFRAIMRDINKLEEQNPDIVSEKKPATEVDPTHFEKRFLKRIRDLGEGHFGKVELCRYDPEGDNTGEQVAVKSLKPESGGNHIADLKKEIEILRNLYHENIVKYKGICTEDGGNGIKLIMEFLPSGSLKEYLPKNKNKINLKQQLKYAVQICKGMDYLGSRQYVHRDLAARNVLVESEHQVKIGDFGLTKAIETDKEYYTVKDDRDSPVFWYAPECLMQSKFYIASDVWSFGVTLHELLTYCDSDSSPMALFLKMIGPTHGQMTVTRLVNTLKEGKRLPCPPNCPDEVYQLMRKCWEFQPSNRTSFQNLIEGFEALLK
T1 sequence (P29597 whole entry): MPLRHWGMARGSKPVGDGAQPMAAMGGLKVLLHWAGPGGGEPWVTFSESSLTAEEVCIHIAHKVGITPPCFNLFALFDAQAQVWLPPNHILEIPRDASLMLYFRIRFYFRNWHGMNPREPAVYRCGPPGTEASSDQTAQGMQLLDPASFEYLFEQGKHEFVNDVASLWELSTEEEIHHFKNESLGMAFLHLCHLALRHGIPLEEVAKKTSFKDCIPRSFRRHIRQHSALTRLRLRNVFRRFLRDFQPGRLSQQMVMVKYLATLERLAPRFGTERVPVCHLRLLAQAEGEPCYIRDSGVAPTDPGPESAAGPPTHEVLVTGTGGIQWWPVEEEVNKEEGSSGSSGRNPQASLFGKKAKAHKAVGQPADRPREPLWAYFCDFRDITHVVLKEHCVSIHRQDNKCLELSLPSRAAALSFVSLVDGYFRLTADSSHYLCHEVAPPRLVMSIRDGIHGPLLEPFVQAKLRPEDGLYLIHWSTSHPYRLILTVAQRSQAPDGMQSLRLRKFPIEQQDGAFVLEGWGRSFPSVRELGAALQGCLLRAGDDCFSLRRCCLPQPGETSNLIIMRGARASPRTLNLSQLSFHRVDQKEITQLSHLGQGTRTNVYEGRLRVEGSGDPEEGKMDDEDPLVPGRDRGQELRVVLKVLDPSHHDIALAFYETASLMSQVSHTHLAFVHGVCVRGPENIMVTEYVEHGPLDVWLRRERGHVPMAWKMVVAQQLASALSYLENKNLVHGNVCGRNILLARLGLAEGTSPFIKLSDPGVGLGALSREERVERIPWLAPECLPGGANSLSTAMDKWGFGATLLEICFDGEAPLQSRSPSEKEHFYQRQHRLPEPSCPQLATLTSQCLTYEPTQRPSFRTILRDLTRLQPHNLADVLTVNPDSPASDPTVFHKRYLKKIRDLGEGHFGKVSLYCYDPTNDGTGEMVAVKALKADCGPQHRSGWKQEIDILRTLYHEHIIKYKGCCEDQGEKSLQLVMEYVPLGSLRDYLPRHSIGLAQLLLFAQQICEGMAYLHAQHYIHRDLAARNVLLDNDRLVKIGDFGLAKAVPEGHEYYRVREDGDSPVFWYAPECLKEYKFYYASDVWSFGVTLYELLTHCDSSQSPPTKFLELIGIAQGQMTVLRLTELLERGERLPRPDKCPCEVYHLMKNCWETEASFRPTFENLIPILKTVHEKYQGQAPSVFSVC

Row | inhibition at 1 µM (TYK2) [%] | inhibition at 1 µM (JAK3) [%] | inhibition at 1 µM (JAK2) [%] | inhibition at 1 µM (JAK1) [%] | JAK2 enzyme inhibitory activity (%, 1 μM) (JAK2) [%] | JAK1 enzyme inhibitory activity (%, 1 μM) (JAK1) [%] | TYK2 enzyme inhibitory activity (%, 1 μM) (TYK2) [%] | JAK3 enzyme inhibitory activity (%, 1 μM) (JAK3) [%] | Compound
1 | 100 | 99 | 98 | 98 | – | – | – | – | CC(C)[C@H](C)n1cc(-c2cc(N3CCN(S(C)(=O)=O)CC3)n(C)n2)c2[nH]nc(N)c2c1=O [Example 108, 3-amino-5-((2S)-3-methylbutan-2-yl)-7-(1-methyl-5-(4-(methylsulfonyl)piperazin-1-yl)-1H-pyrazol-3-yl)-1,5-dihydro-4H-pyrazolo[4,3-c]pyridin-4-one]
2 | 99 | 99 | 99 | 98 | – | – | – | – | COC(C)(C)c1cc(-c2cn([C@@H](C)C(C)C)c(=O)c3c(N)n[nH]c23)nn1C [Example 109, 3-amino-7-(5-(2-methoxypropan-2-yl)-1-methyl-1H-pyrazol-3-yl)-5-((2S)-3-methylbutan-2-yl)-1,5-dihydro-4H-pyrazolo[4,3-c]pyridin-4-one]
3 | 100 | 99 | 99 | 89 | – | – | – | – | COC1(c2cc(-c3cn([C@@H](C)C(C)C)c(=O)c4c(N)n[nH]c34)nn2C)CCS(=O)(=O)CC1 [Example 110, 3-amino-7-(5-(4-methoxy-1,1-dioxidotetrahydro-2H-thiopyran-4-yl)-1-methyl-1H-pyrazol-3-yl)-5-((2S)-3-methylbutan-2-yl)-1,5-dihydro-4H-pyrazolo[4,3-c]pyridin-4-one]
4 | 100 | 98 | 97 | 83 | – | – | – | – | COC1(c2cc(-c3cn([C@@H](C)C(C)C)c(=O)c4c(N)n[nH]c34)nn2C)CN(C(=O)C(C)C)C1 [Example 111, 3-amino-7-(5-(1-isobutyryl-3-methoxyazetidin-3-yl)-1-methyl-1H-pyrazol-3-yl)-5-((2S)-3-methylbutan-2-yl)-1,5-dihydro-4H-pyrazolo[4,3-c]pyridin-4-one]
5 | 99 | 99 | – | – | 98 | 97 | – | – | CC(C)C(C#N)n1cc(-c2cc(N3CCOCC3)n(C)n2)c2[nH]nc(N)c2c1=O (stereo not drawn) [Example 113, 2-(3-amino-7-(1-methyl-5-(morpholin-4-yl)-1H-pyrazol-3-yl)-4-oxo-1,4-dihydro-5H-pyrazolo[4,3-c]pyridin-5-yl)-3-methylbutanenitrile]
6 | – | – | – | – | 74 | 68 | 95 | 84 | CC(C)C(C#N)n1cc(-c2cc(N3CCOCC3)n(C)n2)c2[nH]nc(N)c2c1=O (stereo not drawn) [Example 114, 2-(3-amino-7-(1-methyl-5-(morpholin-4-yl)-1H-pyrazol-3-yl)-4-oxo-1,4-dihydro-5H-pyrazolo[4,3-c]pyridin-5-yl)-3-methylbutanenitrile]
7 | 100 | 99 | 91 | 93 | – | – | – | – | CC(C)C(C1CC1)n1cc(-c2cc(N3CCOCC3)n(C)n2)c2[nH]nc(N)c2c1=O (stereo not drawn) [Example 115, 3-amino-5-(1-cyclopropyl-2-methylpropyl)-7-(1-methyl-5-(morpholin-4-yl)-1H-pyrazol-3-yl)-1,5-dihydro-4H-pyrazolo[4,3-c]pyridin-4-one]
8 | 99 | 97 | 85 | 85 | – | – | – | – | CC1CCCCC1n1cc(-c2cc(C(C)(C)O)n(C)n2)c2[nH]nc(N)c2c1=O (stereo not drawn) [Example 117, 3-amino-7-(5-(2-hydroxypropan-2-yl)-1-methyl-1H-pyrazol-3-yl)-5-(2-methylcyclohexyl)-1,5-dihydro-4H-pyrazolo[4,3-c]pyridin-4-one]
9 | – | – | – | – | 97 | 98 | 100 | 99 | CC1CCCCC1n1cc(-c2cc(C(C)(C)O)n(C)n2)c2[nH]nc(N)c2c1=O (stereo not drawn) [Example 118, 3-amino-7-(5-(2-hydroxypropan-2-yl)-1-methyl-1H-pyrazol-3-yl)-5-(2-methylcyclohexyl)-1,5-dihydro-4H-pyrazolo[4,3-c]pyridin-4-one]
10 | – | – | – | – | 98 | 99 | 100 | 100 | CC1CCCCC1n1cc(-c2cc(C(C)(C)O)n(C)n2)c2[nH]nc(N)c2c1=O (stereo not drawn) [Example 119, 3-amino-7-(5-(2-hydroxypropan-2-yl)-1-methyl-1H-pyrazol-3-yl)-5-(2-methylcyclohexyl)-1,5-dihydro-4H-pyrazolo[4,3-c]pyridin-4-one]
11 | – | – | – | – | 100 | 100 | 101 | 100 | CC1CCCCC1n1cc(-c2cc(C(C)(C)O)n(C)n2)c2[nH]nc(N)c2c1=O (stereo not drawn) [Example 120, 3-amino-7-(5-(2-hydroxypropan-2-yl)-1-methyl-1H-pyrazol-3-yl)-5-(2-methylcyclohexyl)-1,5-dihydro-4H-pyrazolo[4,3-c]pyridin-4-one]
12 | 100 | 97 | 98 | 98 | – | – | – | – | COC(C)(C)c1cc(-c2cn(-c3c(F)cccc3C#N)c(=O)c3c(N)n[nH]c23)nn1C [Example 121, 2-(3-amino-7-(5-(2-methoxypropan-2-yl)-1-methyl-1H-pyrazol-3-yl)-4-oxo-1,4-dihydro-5H-pyrazolo[4,3-c]pyridin-5-yl)-3-fluorobenzonitrile]
13 | 101 | 97 | 93 | 97 | – | – | – | – | CC(C)N(C)c1cc(-c2cn(-c3c(F)cccc3C#N)c(=O)c3c(N)n[nH]c23)nn1C [Example 122, 2-(3-amino-7-(5-(isopropyl(methyl)amino)-1-methyl-1H-pyrazol-3-yl)-4-oxo-1,4-dihydro-5H-pyrazolo[4,3-c]pyridin-5-yl)-3-fluorobenzonitrile]
14 | 100 | 95 | 94 | 97 | – | – | – | – | CN(c1cc(-c2cn(-c3c(F)cccc3C#N)c(=O)c3c(N)n[nH]c23)nn1C)C1CCCC1 [Example 123, 2-(3-amino-7-(5-(cyclopentyl(methyl)amino)-1-methyl-1H-pyrazol-3-yl)-4-oxo-1,4-dihydro-5H-pyrazolo[4,3-c]pyridin-5-yl)-3-fluorobenzonitrile]
15 | 101 | 100 | 99 | 99 | – | – | – | – | CO[C@]1(c2cc(-c3cn(-c4c(F)cccc4F)c(=O)c4c(N)n[nH]c34)nn2C)C[C@H](C(=O)N(C)C)C1 [Example 124, cis-3-(3-(3-amino-5-(2,6-difluorophenyl)-4-oxo-4,5-dihydro-1H-pyrazolo[4,3-c]pyridin-7-yl)-1-methyl-1H-pyrazol-5-yl)-3-methoxy-N,N-dimethylcyclobutanecarboxamide]

Source: patent US9637483B2, “Heterocyclic compound” (TAKEDA PHARMACEUTICAL COMPANY LIMITED, priority 2013, dated 2017)
